From patent publication US20110212899A1, “Corneal Neuritogenesis Promoter Containing Pacap and Its Derivative” (priority 2004, published 2011)
Where no end group is shown, it is not given here.

Tests used:
[1] = test system: excised rabbit lacrimal gland; assay: Promoting effect on protein secretion from an excised lacrimal gland (2) (Test Example 5); assay type: cell-based; conditions: 10^−7 M, incubated 60 minutes; p<0.05
Method: A lacrimal gland was excised from a rabbit and incubated in a solution containing PACAP27 or peptide 24, and changes in the amount of secreted protein were examined as lacrimal gland stimulating activity.
Japanese white rabbits with a body weight of 1.5 to 2.0 kg purchased from Fukusaki Rabbit warren were used. The animals were each put in separate cages placed in a room wherein a temperature of 23±3° C. and a humidity of 55±10% were kept and a light was on for 12 hours per day (lighting at 8:00 and lights-out at 20:00), and raised after arrival until the final day of the test. The animals were given 100 g of solid feed (Labo R Stock, Nosan Corporation) per day, and could freely have tap water.
PACAP27 and peptide 24 were used as test substances. Test substance solutions were prepared as follows. […]
The section sample in a stationary state was incubated in 0.5 mL of a fresh incubation solution at 37° C. for 20 minutes under a mixed gas atmosphere of 95% oxygen and 5% carbon dioxide. After completion of the incubation, the incubation solution was collected, and the protein amount in the solution was determined by using a protein staining reagent (DC Protein Assay Reagent, Bio Rad). […] The incubation solution was collected, and the protein amount in the incubation solution was determined. […]

[2] = test system: Human normal corneal epithelial cells; assay: Promoting effect on proliferation of cultured corneal epithelial cells (Test Example 8); assay type: cell-based; conditions: final concentration (10^−5 M), cultivation for 8 days; p<0.05
Method: Human normal corneal epithelial cells (Kurabo Industries Ltd., strain No. 4C0466) were used. Peptide 24 and PACAP27 were used as test substances. The test substance was dissolved in distilled water at a concentration 1000 times of the final concentration (10^−5 M), and the concentration was then adjusted to twice the final concentration with a serum-free proliferation medium for human corneal epithelial cells (EpiLife (−), Kurabo Industries Ltd.). After thawing freeze-preserved human normal corneal epithelial cells, the cells were seeded according to a conventional method and cultured for 7 days at 37° C. in 5% CO2. After the cultivation, the cells were harvested by a conventional method, and were suspended in EpiLife (−) at a concentration of 1.0×10^4 cells/mL. […] The number of the cells was counted based on the ability to reduce MTT (3-(4,5-dimethyl-2-thiazolyl)-2,5-diphenyl-2H-tetrazolium bromide) according to the protocol of Cell Counting Kit-8 (Dojindo Laboratories). […] The plate was incubated at 37° C. in 5% CO2 for 2 hours and then, the absorbance was measured at 450 nm using a microplate reader. Average values of absorbance in the control group and each test substance-addition group were calculated, and the values were compared between the control group and each test substance-addition group by a Dunnett's multiple comparison test (one-tailed). […]

Substance: His-Ser-Asp-Ala-Ile-Phe-Thr-Asp-Ser-Tyr-Ser-Arg-Tyr-Arg-Arg-Gln-Leu-Ala-Val-Arg-Arg-Tyr-Leu-Ala-Ala-Val-Leu-Gly-Arg-Arg-NH2 (HSDAIFTDSYSRYRRQLAVRRYLAAVLGRR-NH2) [Peptide 24]
- protein secretion rate of excised lacrimal gland compared with control group [1]: significant increase
- cell number (MTT reduction ability) compared with control group [2]: increased
